Experimental data taken from patent US5677148A (priority 1995, dated 1997).
Read-outs that look alike come from different tables or passages of the source.

Tested on: A431 cells
Assay: Sensitivity of DAB-EGF chimeric toxin cytotoxicity to chloroquine ([3H]leucine incorporation)
Conditions: for activity at 10 µM: Homo sapiens; for Percent of Control Incorporation: 20-hour incubation
Method: To determine if the cytotoxicity of DAB486 EGF and DAB389 EGF is also dependent upon the same pathway, A431 cells were plated in sextuplicate wells of 96 well plates containing DAB486 EGF, DAB389 EGF or DMEM+10% FCS in the absence or presence of chloroquine (10^-5 M) (Sigma). […] Following a 20-hour incubation at 37° C., the cells were labeled with [^3 H] leucine, trypsinized, harvested onto glass fiber filter mats and counted.

In the case of `CCN(CC)CCCC(C)Nc1ccnc2cc(Cl)ccc12` (stereo not shown) [Chloroquine], the activity at 10 µM (A-431, read-out: Percent of Control Incorporation, chloroquine 10^-5 M, DAB389 EGF concentration 0, 20-hour incubation at 37° C., [3H]leucine, mean of three experiments) is reported as 73%, the activity at 10 µM (A-431, read-out: Percent of Control Incorporation, chloroquine 10^-5 M, DAB486 EGF concentration 0, 20-hour incubation at 37° C., [3H]leucine, mean of three experiments) is reported as 86% and the “Percent of Control Incorporation” value (chloroquine 10^-5 M with DAB389 EGF 10^-11 M, [3H]leucine (no addition: 4)) is reported as 61%. The “Percent of Control Incorporation” value (chloroquine 10^-5 M with DAB389 EGF 10^-12 M, [3H]leucine (no addition: 57)) was 100%, the “Percent of Control Incorporation” value (chloroquine 10^-5 M with DAB486 EGF 10^-8 M, [3H]leucine (no addition: 5)) was 60% and the “Percent of Control Incorporation” value (chloroquine 10^-5 M with DAB486 EGF 10^-9 M, [3H]leucine (no addition: 25)) was 96%. The “Effect on the cytotoxicity of DT-EGF chimeric toxins” value (chloroquine 10^-5 M, A431 cells, DAB486 EGF or DAB389 EGF) was “blocks the cytotoxicity”.
